Our source for the relative viability values is the supplement of paper PMC10307832.

What all share (experiment): relative viability (nuclei count vs DMSO), 5 days (fraction); higher = more cells survive
Compound in assay [1]: CCn1c(-c2nonc2N)nc2cnc(Oc3cccc(NC(=O)c4ccc(OCCN5CCOCC5)cc4)c3)cc21 + CC(=O)Nc1cccc(-n2c(=O)n(C3CC3)c(=O)c3c(Nc4ccc(I)cc4F)n(C)c(=O)c(C)c32)c1 [Trametinib] (partner 0.02 µM)
The method in brief:
(§1)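 The day after seeding in 1536-well plates, lung cancer cell lines were treated by pin tool with a single drug, or with a fixed anchor-drug dose together with five library-drug doses (not always all listed) in √10 steps. After 5 days, a combined fix-and-stain solution (final 0.05% Triton X-100, 1% formaldehyde, 1 ug/ml Hoechst) was added. Nuclei counted on 4× images gave relative viability as treated counts over vehicle counts, reported as the median of duplicate plates.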

Compound in the assay “Mirin + Olaparib”: N=C1NC(=O)/C(=C/c2ccc(O)cc2)S1 [Mirin] + O=C(c1cc(Cc2n[nH]c(=O)c3ccccc23)ccc1F)N1CCN(C(=O)C2CC2)CC1 [Olaparib] (partner 8 µM)
The gist of the method: as §1

Compound in assay [2]: CCC1=CN=CN=C1N2CCN(CC2)CC3=NC4=C(N3)C=C(C=C4)C(F)(F)F + CC(=O)Nc1cccc(-n2c(=O)n(C3CC3)c(=O)c3c(Nc4ccc(I)cc4F)n(C)c(=O)c(C)c32)c1 [Trametinib] (partner 0.02 µM)
The method in brief:
as §1

Compound in the assay “Mirin + AZD7762”: N=C1NC(=O)/C(=C/c2ccc(O)cc2)S1 [Mirin] + NC(=O)Nc1cc(-c2cccc(F)c2)sc1C(=O)N[C@H]1CCCNC1 [AZD7762] (partner 0.2 µM)
The method in brief: as §1

NCI-H1793: the relative viability in assay [1] (first compound 0.04 µM) turned out to be 0.356; in assay [1] (first compound 0.1265 µM), 0.476; in assay [1] (first compound 0.4 µM) it was 0.425; in assay [1] (first compound 1.265 µM), 0.401; in assay [1] (first compound 4 µM), 0.327; with Mirin + Olaparib (first compound 0.25 µM), 0.649. The relative viability in the assay with Mirin + Olaparib (first compound 2.5 µM) was 0.958; with Mirin + Olaparib (first compound 7.906 µM) it was 0.873; in the assay with Mirin + Olaparib (first compound 25 µM) it was 0.703; in assay [2] (first compound 0.04 µM) it was 0.459; in assay [2] (first compound 0.1265 µM), 0.4; in assay [2] (first compound 0.4 µM), 0.397. For the same cell line, the relative viability was 0.362 in assay [2] (first compound 1.265 µM); 0.349 in assay [2] (first compound 4 µM); 0.468 in the assay with Mirin + AZD7762 (first compound 0.25 µM); 0.631 with Mirin + AZD7762 (first compound 2.5 µM); 0.404 with Mirin + AZD7762 (first compound 7.906 µM); 0.348 in the assay with Mirin + AZD7762 (first compound 25 µM).
Take NCI-H1915: the relative viability was 0.267 in assay [1] (first compound 0.04 µM); 0.31 in assay [1] (first compound 0.1265 µM); 0.309 in assay [1] (first compound 0.4 µM); 0.227 in assay [1] (first compound 1.265 µM); 0.221 in assay [1] (first compound 4 µM); 0.283 in the assay with Mirin + Olaparib (first compound 0.25 µM). Moreover, the relative viability with Mirin + Olaparib (first compound 0.7906 µM) worked out at 0.221; with Mirin + Olaparib (first compound 2.5 µM), 0.272; with Mirin + Olaparib (first compound 7.906 µM), 0.223; with Mirin + Olaparib (first compound 25 µM), 0.182; in assay [2] (first compound 0.04 µM), 0.286; in assay [2] (first compound 0.1265 µM), 0.337. Further, the relative viability in assay [2] (first compound 0.4 µM) was found to be 0.293; in assay [2] (first compound 1.265 µM), 0.248; in assay [2] (first compound 4 µM), 0.287; with Mirin + AZD7762 (first compound 0.25 µM) it was 0.674; with Mirin + AZD7762 (first compound 0.7906 µM), 0.726; in the assay with Mirin + AZD7762 (first compound 2.5 µM), 0.712. For the same cell line, the figures for the relative viability in the assay with Mirin + AZD7762 (first compound 7.906 µM) and with Mirin + AZD7762 (first compound 25 µM) were 0.59 and 0.745, respectively.
Take NCI-H1944: the relative viability in assay [1] (first compound 0.04 µM) amounted to 0.409; in assay [1] (first compound 0.1265 µM) it was 0.365; in assay [1] (first compound 0.4 µM), 0.441; in assay [1] (first compound 1.265 µM) it was 0.467; in assay [1] (first compound 4 µM) it was 0.359; in the assay with Mirin + Olaparib (first compound 0.25 µM), 0.377. For the same cell line, the relative viability with Mirin + Olaparib (first compound 0.7906 µM) is 0.421; in the assay with Mirin + Olaparib (first compound 2.5 µM), 0.391; with Mirin + Olaparib (first compound 7.906 µM), 0.328; with Mirin + Olaparib (first compound 25 µM) it was 0.296; in assay [2] (first compound 0.04 µM), 0.519; in assay [2] (first compound 0.1265 µM), 0.406. Besides, the relative viability turned out to be 0.4 in assay [2] (first compound 0.4 µM); 0.324 in assay [2] (first compound 1.265 µM); 0.352 in assay [2] (first compound 4 µM); 0.555 with Mirin + AZD7762 (first compound 0.25 µM); 0.569 with Mirin + AZD7762 (first compound 0.7906 µM); 0.537 with Mirin + AZD7762 (first compound 2.5 µM). Also, the relative viability in the assay with Mirin + AZD7762 (first compound 7.906 µM) and in the assay with Mirin + AZD7762 (first compound 25 µM) was 0.381 each time.
As for NCI-H1975, the relative viability in assay [1] (first compound 0.04 µM) amounted to 0.261; in assay [1] (first compound 0.1265 µM), 0.256; in assay [1] (first compound 0.4 µM), 0.219; in assay [1] (first compound 1.265 µM), 0.154; in assay [1] (first compound 4 µM), 0.176; with Mirin + Olaparib (first compound 0.25 µM) it was 0.892. Further, the relative viability in the assay with Mirin + Olaparib (first compound 0.7906 µM) was found to be 0.83; in the assay with Mirin + Olaparib (first compound 2.5 µM), 0.819; in the assay with Mirin + Olaparib (first compound 7.906 µM) it was 0.855; with Mirin + Olaparib (first compound 25 µM), 0.715; in assay [2] (first compound 0.04 µM), 0.36; in assay [2] (first compound 0.1265 µM), 0.342. Also, the relative viability is 0.319 in assay [2] (first compound 0.4 µM); 0.309 in assay [2] (first compound 1.265 µM); 0.422 in assay [2] (first compound 4 µM); 0.699 with Mirin + AZD7762 (first compound 0.25 µM); 0.91 in the assay with Mirin + AZD7762 (first compound 0.7906 µM); 0.689 in the assay with Mirin + AZD7762 (first compound 2.5 µM). Further, the relative viability amounted to 0.729 with Mirin + AZD7762 (first compound 7.906 µM) and 0.725 with Mirin + AZD7762 (first compound 25 µM).
